Like-named read-outs stand apart in the source and are kept apart here.
Assays:
HIV-1 NefNL4-3 = HIV-1 NefNL4-3 (Human immunodeficiency virus type 1 group M subtype B, UniProt P03406, A33V/T15A/T51N/V11I); assay: Surface plasmon resonance binding to recombinant full-length Nef (NL4-3); conditions: for RU30/RUNef (extent of binding): response units at 30 μM relative to Nef immobilized on the SPR chip; for Nef NL4-3 Binding, SPR 1:1 or 2-site fitting KD1: 1:1 Langmuir fit where the KD2 cell says '1 to 1 fitting', else 2-site fit
HIV-1NL4-3 = assay: HIV-1 infectivity assay in TZM-bl reporter cell line (LTR-luciferase, 48 h); type: cell-based; conditions: Human immunodeficiency virus 1, TZM-bl
Summary of the method: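 Read-out is luciferase from an integrated HIV-1 LTR reporter in TZM-bl cells, 48 h after HIV-1NL4-3 infection in the presence of 1 μM compound. Scale set by DMSO-treated wild-type-infected cells (0%) and Nef-defective virus (100% Nef-dependent effect). Cell Titer Blue measures cytotoxicity without virus.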

TZM-bl cell line = type: cell-based; conditions: human, 1 μM
Summary of the method: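 Luciferase read-out 48 h post-infection; compound at 1 μM during HIV-1NL4-3 infection of TZM-bl cells. Percent inhibition scaled to DMSO wild-type virus (0%) and DMSO Nef-defective virus (100% of Nef-dependent effect). Viability checked separately in uninfected cells by Cell Titer Blue.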

[1] = KD, M, Table 4, SPR fit 2-step induced fit, KD = koff/kon × koff2/(koff2 + kon2)
[2] = Nef NL4-3 Binding, SPR 2-state fitting KD, Table 1, 2-step induced-fit model
[3] = Table 4, 2-step induced fit, T = 1/koff2
[4] = 1.0 μM, TZM-bl reporter cell line, Table 4, read-out: % Infectivity Inhibition
[5] = 48 h, Table 1, TZM-bl cells, 1 μM, 48 h, 100% = Nef-defective HIV-1, read-out: HIV-1 Infectivity % Inhibition Norm. to Δ-Nef @ 1 μM
[6] = read-out: Nef NL4-3 Binding, SPR 1:1 or 2-site fitting KD2, Table 1, 2-site fit, second component

Row | Compound | Kd (HIV-1 NefNL4-3) [nM] | Kd (HIV-1 NefNL4-3; [1]) [nM] | Kd (HIV-1 NefNL4-3; [2]) [nM] | T, minutes (residence time) (HIV-1 NefNL4-3; [3]) | RU30/RUNef (extent of binding) (HIV-1 NefNL4-3) | inhibition at 1 µM (HIV-1NL4-3; [4]) [%] | inhibition at 1 µM (HIV-1NL4-3; [5]) [%] | % Cell Viability (TZM-bl cell line) [%] | Percent Viability @ 1 μM (TZM-bl cells) (TZM-bl cell line) [%] | Kd (HIV-1 NefNL4-3; [6]) [nM] | Nef NL4-3 Binding, SPR 1:1 or 2-site fitting KD1 (HIV-1 NefNL4-3; Table 1) | Kd (HIV-1 NefNL4-3; KD, M, Table 4, SPR fit 1:1 Langmuir, KD = koff/kon) [nM] | T, minutes (residence time) (HIV-1 NefNL4-3; Table 4, 1:1 Langmuir fit, T = 1/koff) [E + 00 minutes] | Kd (HIV-1 NefNL4-3; Nef NL4-3 Binding, SPR 1:1 or 2-site fitting KD2, Table 1, 2-site fit, second component) [nM]
1 | CC(=O)N1CCC(CCc2c(-c3ccc(C(F)(F)F)cc3)nn(-c3nc4ccccc4[nH]3)c2O)CC1 [Compound I-719, 1-(4-{2-[1-(1H-1,3-benzodiazol-2-yl)-5-hydroxy-3-[4-(trifluoromethyl)phenyl]-1H-pyrazol-4-yl]ethyl}piperidin-1-yl)ethan-1-one] | 2200 | 451 | 451 | 4.44E + 01 minutes | 9.42E- 03 | 0 | -8.3 | 98.0 | 98.0 |  |  |  |  | 
2 | CCOC(=O)N1CCC(c2nn(-c3nc4ccccc4[nH]3)c(O)c2CCC2CCOCC2)CC1 [Compound I-723, ethyl 4-[1-(1H-1,3-benzodiazol-2-yl)-5-hydroxy-4-[2-(oxan-4-yl)ethyl]-1H-pyrazol-3-yl]piperidine-1-carboxylate] | 2100 | 9090 | 9090 | 5.21E + 00 minutes | 9.19E- 03 | 0 | -18.1 | 92.2 | 92.2 | 12200 |  |  |  | 
3 | CN(C)S(=O)(=O)N1CCC(c2nn(-c3nc4ccccc4[nH]3)c(O)c2CCC2CCOCC2)CC1 [Compound I-724, 4-[1-(1H-1,3-benzodiazol-2-yl)-5-hydroxy-4-[2-(oxan-4-yl)ethyl]-1H-pyrazol-3-yl]-N,N-dimethylpiperidine-1-sulfonamide] |  |  |  |  |  |  | 55.8 |  | 98.6 |  | No Interaction |  |  | 
4 | CC(C)OC(=O)N1CCC(c2nn(-c3nc4ccccc4[nH]3)c(O)c2CC2CCOCC2)CC1 [Compound I-725, propan-2-yl 4-[1-(1H-1,3-benzodiazol-2-yl)-5-hydroxy-4-[(oxan-4-yl)methyl]-1H-pyrazol-3-yl]piperidine-1-carboxylate] | 3290 |  |  |  | 3.88E- 03 | 37.4 | 37.4 | 95.6 | 95.6 |  |  | 3290 | 4.73 | 
5 | CN1CCN(CC(=O)N2CCC(c3nn(-c4nc5ccccc5[nH]4)c(O)c3CCc3ccc(F)cc3)CC2)CC1 [Compound I-726, 1-{4-[1-(1H-1,3-benzodiazol-2-yl)-4-[2-(4-fluorophenyl)ethyl]-5-hydroxy-1H-pyrazol-3-yl]piperidin-1-yl}-2-(4-methylpiperazin-1-yl)ethan-1-one] |  |  |  |  |  |  | -4.6 |  | 102.4 |  | No Interaction |  |  | 
6 | CO[C@H](C)C(=O)N1CCC(c2nn(-c3nc4ccccc4[nH]3)c(O)c2CCc2ccc(F)cc2)CC1 [Compound I-727, (2R)-1-{4-[1-(1H-1,3-benzodiazol-2-yl)-4-[2-(4-fluorophenyl)ethyl]-5-hydroxy-1H-pyrazol-3-yl]piperidin-1-yl}-2-methoxypropan-1-one] |  |  |  |  |  |  | 8.7 |  | 95.1 |  | No Interaction |  |  | 
7 | O=C(c1cnccn1)N1CCC(c2nn(-c3nc4ccccc4[nH]3)c(O)c2CCc2ccc(F)cc2)CC1 [Compound I-728, 1-(1H-1,3-benzodiazol-2-yl)-4-[2-(4-fluorophenyl)ethyl]-3-[1-(pyrazine-2-carbonyl)piperidin-4-yl]-1H-pyrazol-5-ol] | 142 |  |  |  |  |  | 53.7 |  | 99.1 |  |  |  |  | 
8 | O=C(c1ccccn1)N1CCC(c2nn(-c3nc4ccccc4[nH]3)c(O)c2CCc2ccc(F)cc2)CC1 [Compound I-730, 1-(1H-1,3-benzodiazol-2-yl)-4-[2-(4-fluorophenyl)ethyl]-3-[1-(pyridine-2-carbonyl)piperidin-4-yl]-1H-pyrazol-5-ol] |  |  |  |  |  |  | 24.6 |  | 95.1 |  | No Interaction |  |  | 
9 | O=C(c1cccc(O)n1)N1CCC(c2nn(-c3nc4ccccc4[nH]3)c(O)c2CCc2ccc(F)cc2)CC1 [Compound I-731, 6-{4-[1-(1H-1,3-benzodiazol-2-yl)-4-[2-(4-fluorophenyl)ethyl]-5-hydroxy-1H-pyrazol-3-yl]piperidine-1-carbonyl}pyridin-2-ol] |  |  |  |  |  |  | 11.5 |  | 98.9 |  | No Interaction |  |  | 
10 | CC[C@H](C)[C@H](O)C(=O)N1CCC(c2nn(-c3nc4ccccc4[nH]3)c(O)c2CCc2ccc(F)cc2)CC1 [Compound I-732, (2S,3S)-1-{4-[1-(1H-1,3-benzodiazol-2-yl)-4-[2-(4-fluorophenyl)ethyl]-5-hydroxy-1H-pyrazol-3-yl]piperidin-1-yl}-2-hydroxy-3-methylpentan-1-one] | 630 | 4210 | 4210 | 3.78E + 00 minutes | 3.09E- 03 | 85.5 | 85.5 | 91.0 | 91.0 |  |  |  |  | 1770
11 | CC[C@H](O)C(=O)N1CCC(c2nn(-c3nc4ccccc4[nH]3)c(O)c2CCc2ccc(F)cc2)CC1 [Compound I-733, (2S)-1-{4-[1-(1H-1,3-benzodiazol-2-yl)-4-[2-(4-fluorophenyl)ethyl]-5-hydroxy-1H-pyrazol-3-yl]piperidin-1-yl}-2-hydroxybutan-1-one] | 26900 |  |  |  |  |  | 56.5 |  | 98.8 |  |  |  |  | 
12 | O=C(Cc1ccncc1)N1CCC(c2nn(-c3nc4ccccc4[nH]3)c(O)c2CCc2ccc(F)cc2)CC1 [Compound I-734, 1-{4-[1-(1H-1,3-benzodiazol-2-yl)-4-[2-(4-fluorophenyl)ethyl]-5-hydroxy-1H-pyrazol-3-yl]piperidin-1-yl}-2-(pyridin-4-yl)ethan-1-one] | 576 |  |  |  |  |  | -8.2 |  | 96.0 |  |  |  |  | 
13 | O=C(C1CCC(O)CC1)N1CCC(c2nn(-c3nc4ccccc4[nH]3)c(O)c2CCc2ccc(F)cc2)CC1 (stereo not shown) [Compound I-735, 1-(1H-1,3-benzodiazol-2-yl)-4-[2-(4-fluorophenyl)ethyl]-3-[1-(4-hydroxycyclohexanecarbonyl)piperidin-4-yl]-1H-pyrazol-5-ol] | 46.9 | 0.498 | 0.498 | 6.44E + 03 minutes | 6.53E- 03 | 38.8 | 38.8 | 96.9 | 96.9 | 2800 |  |  |  | 
14 | O=C(C1CCOC1)N1CCC(c2nn(-c3nc4ccccc4[nH]3)c(O)c2CCc2ccc(F)cc2)CC1 (stereo not shown) [Compound I-736, 1-(1H-1,3-benzodiazol-2-yl)-4-[2-(4-fluorophenyl)ethyl]-3-[1-(oxolane-3-carbonyl)piperidin-4-yl]-1H-pyrazol-5-ol] | 99.3 | 2.06 | 2.06 | 1.97E + 03 minutes | 1.02E- 02 | 7.5 | 7.5 | 96.0 | 96.0 | 1940 |  |  |  | 
15 | O=C(c1ccoc1)N1CCC(c2nn(-c3nc4ccccc4[nH]3)c(O)c2CCc2ccc(F)cc2)CC1 [Compound I-737, 1-(1H-1,3-benzodiazol-2-yl)-4-[2-(4-fluorophenyl)ethyl]-3-[1-(furan-3-carbonyl)piperidin-4-yl]-1H-pyrazol-5-ol] | 0.00489 | 1.7 | 1.7 | 9.06E + 03 minutes | 1.36E- 02 | 0 | -4.8 | 93.0 | 93.0 | 4000 |  |  |  | 

From patent US20220380341A1, “INHIBITORS OF HIV-1 NEF FOR THE TREATMENT OF HIV DISEASE” (priority 2018, published 2022)
